According to patent publication US20100047246A1, “Methods and Compositions for Treating Vascular Disease” (The General Hospital Corporation, priority 2006, published 2010):

Columns and labels:
[1] = tested on: Tg(flk1:GFP) embryos; experiment: lycat morpholino and mRNA injections, cloche phenotype and GFP scoring in transgenic embryos; assay type: in vivo, zebrafish; conditions: for flk1:GFP signals in vessels: 24 hpf; for flk1:GFP signals in vessels / gata1:GFP signal in the blood islands: a345 control, lycat RNA 300 ng/ul; for flk1:GFP signals in vessels / gata1:GFP signal in the blood islands / Wild-type (phenotype), number of embryos / clo (phenotype), number of embryos: d522 0.3 mM; for gata1:GFP signal in the blood islands: gata1:GFP embryos; for Wild-type (phenotype), number of embryos / clo (phenotype), number of embryos: injected into 1- to 2-cell stage Tg(flk1:GFP) embryos, scored at 36 hpf and 48 hpf, a345 0.5 mM, Lycat RNA 0.3 μg/μl
Procedure: The cloche alleles, clo^m39 and clo^m378 have been previously described (Stainier et al., Development 121:3141, 1995; Stainier et al., Development 123:285, 1996). A new ENU-induced allele, clo^fv087b was also used. Genetic mapping of cloche was carried out using hybrid F1 (Clo^m39×TL, clo^m378×TL, clo^fv087b×WIK). Transgenic lines Tg(flk1:GFP) and Tg(gata1:GFP) (Long et al., Proc. Natl. Acad. Sci. U.S.A. 94:6267, 1997; Cross et al., ArterioScler. Thromb. Vasc. Biol. 23:911, 2003), were crossed with heterozygous clo^fv087b fish to generate transgenic clo^fv087b individuals. Examining cloche phenotypes and the GFP expression of embryos from sibling crossings identified heterozygous clo^fv087b/+ fish with the Tg(flk1:GFP) or Tg(gata1:GFP).
(§1) Four morpholinos were synthesized: three anti-sense morpholinos targeting the zebrafish lycat ATG site (atg): […] (SEQ ID NO:5); the second splicing donor site (d322): […] (SEQ ID NO:6); the third splicing donor site (d522): […] (SEQ ID NO:7); and a control morpholino (a345): […] (SEQ ID NO:8) (Gene Tools, LLC). Zebrafish lycat and mouse lycat were cloned into the pCS2 vector, and capped mRNA was synthesized using mRNA in vitro transcription kits (Ambion Inc., Austin, Tex.). Morpholinos and mRNA were injected into one- or two-cell stage wild-type, clo^fv087b; Tg(flk1:GFP) or clo^fv087b; Tg(gata1:GFP) embryos. Injected embryos were incubated at 28.5° C. for examination of phenotypes or were fixed for in situ hybridization. The bright-field pictures were taken using a Zeiss M12 dissecting microscope, and the fluorescence pictures were taken with a Zeiss Stemi SVII Apo fluorescence microscope.

[2] = tested on: scl expression in the ICM; experiment: scl RNA in situ hybridization in injected embryos; assay type: in vivo, zebrafish; conditions: d522 0.3 mM, 0.4 mM, 0.5 mM, 20 hpf, RNA in situ analysis
Source text: FIG. 3. Antisense lycat morpholinos mimic the cloche mutant phenotype and lycat mRNA rescues morpholino mediated knockdown.
as §1
In situ hybridization and antibody staining were done in the presence of blocking solution (Roche, Basil, Switzerland), in the RNA hybridization solution, and antibody staining solution (Schulte-Merker, Looking at embryos, 2002). […]

| Substance | flk1:GFP signals in vessels [1] | gata1:GFP signal in the blood islands [1] | Wild-type (phenotype), number of embryos [1] | clo (phenotype), number of embryos [1] | scl expression in the ICM [2] | scl expression in the ICM ([2]; listed as lycat morpholino) | injected embryos showing a clear cloche phenotype (lack blood cells, vascular endothelium, endocardium) ([1]; 0.3 mM d522, 5 nl, Tg(flk1:GFP) embryos, 36 hpf and 48 hpf, 132 out of 150) [%] |
| --- | --- | --- | --- | --- | --- | --- | --- |
| a345: control morpholino: GCAGCGGGCACTGCTGGTGGAAGT (SEQ ID NO:8) (all phosphorodiamidate morpholino (PMO)) [reference compound] | strong flk1:GFP signals | strong gata1:GFP signal | 65 | 0 |  |  |  |
| d522: anti-sense morpholino targeting zebrafish lycat third splicing donor site: CTGAACACACACACTGACCGAAGC (SEQ ID NO:7) (all phosphorodiamidate morpholino (PMO)) | very little flk1:GFP signals | very little gata1:GFP signal | 18 | 132 | decreased scl | reduces expression of Scl in the intermediate cell mass (ICM) in a dose-dependent manner | 88 |
